Biological target: T1, HSP90α (Homo sapiens, UniProt P07900)
T1 construct: purchased Stressgen Lot B506492
Assay: HSP90 binding assay (fluorescent ELISA, competition with biotinylated Geldanamycin)
Settings: reported as range of IC50's
Description: The biochemical assay is described as follows.
Purified HSP90α […] was purchased from Stressgen Lot B506492. Single use aliquots of the 1.15 mg/ml stock were prepared and stored at −80° C. to avoid multiple freeze-thaw cycles.
A Nunc Maxisorb plate was coated overnight at 4° C. with 200 ng of HSP90/well dissolved in DPBS. The following day the plates were washed with TBST and blocked for 2 h at room temperature with blocking buffer (20 mM HEPES pH 7.3, 1 mM EDTA, 5 mM MgCl2, 100 mM KCl, 5% BSA). Blocking buffer was removed by washing plates with TBST, and test compounds dissolved in assay buffer (20 mM HEPES pH 7.3, 1 mM EDTA, 5 mM MgCl2, 100 mM KCl, 1% BSA) were added to plate. […] The reaction is incubated for 60 minutes at room temperature. […] Competitive inhibitory compounds will block this interaction from occurring.
The reactions were stopped by washing the plate with TBST. The binding of the bio-GM is detected by the addition of an Alkaline Phosphatase tagged Streptavidin molecule. A TBST wash eliminates any unbound detection agent, and the Alkaline Phosphate substrate Attophos is introduced. This substrate generates a fluorescent signal at […] when excited at […]. These plates can be monitored on either a Victor 5 or Perkin Elmer Envision multilabel reader.

Row | IC50 [µM] | Structure (SMILES)
1 | 1 to 10 | COCCCn1nnnc1-c1cc(-c2cc(C(C)C)ccc2OC)c(O)cc1O [Compound 16, 5′-isopropyl-2′-methoxy-5-[1-(3-methoxy-propyl)-1H-tetrazol-5-yl]-biphenyl-2,4-diol]
2 | > 50 | CCCCn1nnnc1-c1cc(-c2cccc(C(=O)NC(C)COC)c2)c(O)cc1O (stereo not shown) [Compound 48, 5′-(1-Butyl-1H-tetrazol-5-yl)-2′,4′-dihydroxy-biphenyl-3-carboxylic acid (2-methoxy-1-methyl-ethyl)-amide]
3 | > 50 | CCCCn1nnnc1-c1cc(-c2cccc(C(=O)N3CCC(N4CCCC4)CC3)c2)c(O)cc1O [Compound 49, [5′-(1-Butyl-1H-tetrazol-5-yl)-2′,4′-dihydroxy-biphenyl-3-yl]-(4-pyrrolidin-1-yl-piperidin-1-yl)-methanone]
4 | > 50 | CCCCn1nnnc1-c1cc(-c2cccc(C(=O)N3CCN(CC)CC3)c2)c(O)cc1O [Compound 50]
5 | > 50 | CCCCn1nnnc1-c1cc(-c2cccc(C(=O)N3CCCC(C(=O)N(CC)CC)C3)c2)c(O)cc1O (stereo not shown) [Compound 51]
6 | > 50 | CCCCn1nnnc1-c1cc(-c2cccc(C(=O)N3CCN(S(=O)(=O)CC)CC3)c2)c(O)cc1O [Compound 53, [5′-(1-Butyl-1H-tetrazol-5-yl)-2′,4′-dihydroxy-biphenyl-3-yl]-(4-ethanesulfonyl-piperazin-1-yl)-methanone]
7 | > 50 | CCCCn1nnnc1-c1cc(-c2cccc(C(=O)NCCCN3CCOCC3)c2)c(O)cc1O [Compound 54]
8 | > 50 | CCCCn1nnnc1-c1cc(-c2cccc(C(=O)NCCCN3CCCC3)c2)c(O)cc1O [Compound 55]
9 | > 50 | CCCCn1nnnc1-c1cc(-c2cccc(C(=O)N3CCN(CCCN4CCOCC4)CC3)c2)c(O)cc1O [Compound 56, [5′-(1-Butyl-1H-tetrazol-5-yl)-2′,4′-dihydroxy-biphenyl-3-yl]-[4-(3-morpholin-4-ylpropyl)-piperazin-1-yl]-methanone]
10 | > 50 | CCCCn1nnnc1-c1cc(-c2cccc(C(=O)NCCc3cccc(OC)c3)c2)c(O)cc1O [Compound 57]
11 | > 50 | CCCCn1nnnc1-c1cc(-c2cccc(C(=O)NCCN(C)C)c2)c(O)cc1O [Compound 58]
12 | > 50 | CCCCn1nnnc1-c1cc(-c2cccc(C(=O)NCCC3CCCN3C)c2)c(O)cc1O (stereo not shown) [Compound 59]
13 | > 50 | CCCCn1nnnc1-c1cc(-c2cccc(C(=O)NC(C)CN(C)C)c2)c(O)cc1O (stereo not shown) [Compound 60, 5′-(1-Butyl-1H-tetrazol-5-yl)-2′,4′-dihydroxy-biphenyl-3-carboxylic acid (2-dimethylamino-1-methyl-ethyl)-amide]
14 | > 50 | CCCCn1nnnc1-c1cc(-c2cccc(C(=O)N(CCO)CC(C)CC)c2)c(O)cc1O (stereo not shown) [Compound 61]
15 | > 50 | COCCCn1nnnc1-c1cc(-c2cccc(C(=O)NC(C)COC)c2)c(O)cc1O (stereo not shown) [Compound 62]
16 | > 50 | COCCCn1nnnc1-c1cc(-c2cccc(C(=O)N(C)CCN(C)C)c2)c(O)cc1O [Compound 63]

Row | IC50 [µM] | Structure (SMILES)
17 | > 50 | COCCCn1nnnc1-c1cc(-c2cccc(C(=O)N(C)CCCN(C)C)c2)c(O)cc1O [Compound 64, 2′,4′-Dihydroxy-5′-[1-(3-methoxy-propyl)-1H-tetrazol-5-yl]-biphenyl-3-carboxylic Acid (3-dimethylamino-propyl)-methyl-amide]
18 | > 50 | COCCCn1nnnc1-c1cc(-c2cccc(C(=O)NCCCN(C)C)c2)c(O)cc1O [Compound 65]
19 | > 50 | CCS(=O)(=O)N1CCN(C(=O)c2cccc(-c3cc(-c4nnnn4CCCOC)c(O)cc3O)c2)CC1 [Compound 66, {2′,4′-Dihydroxy-5′-[1-(3-methoxy-propyl)-1H-tetrazol-5-yl]-biphenyl-3-yl}-(4-ethanesulfonyl-piperazin-1-yl)-methanone]
20 | > 50 | COCCCn1nnnc1-c1cc(-c2cccc(C(=O)NCCCN3CCOCC3)c2)c(O)cc1O [Compound 67, 2′,4′-Dihydroxy-5′-[1-(3-methoxy-propyl)-1H-tetrazol-5-yl]-biphenyl-3-carboxylic Acid (3-morpholin-4-yl-propyl)-amide]
21 | > 50 | COCCCn1nnnc1-c1cc(-c2cccc(C(=O)NCCC3CCCN3C)c2)c(O)cc1O (stereo not shown) [Compound 68, 2′,4′-Dihydroxy-5′-[1-(3-methoxypropyl)-1H-tetrazol-5-yl]-biphenyl-3-carboxylic acid [2-(1-methyl-pyrrolidin-2-yl)-ethyl]-amide]
22 | > 50 | COCCCn1nnnc1-c1cc(-c2cccc(C(=O)N3CCN(CC4CCN(C)CC4)CC3)c2)c(O)cc1O [Compound 69]
23 | > 50 | COCCCn1nnnc1-c1cc(-c2cccc(C(=O)NC(C)CN(C)C)c2)c(O)cc1O (stereo not shown) [Compound 70, 2′,4′-Dihydroxy-5′-[1-(3-methoxy-propyl)-1H-tetrazol-5-yl]-biphenyl-3-carboxylic acid (2-dimethylamino-1-methyl-ethyl)-amide]
24 | > 50 | CCC(C)CN(CCO)C(=O)c1cccc(-c2cc(-c3nnnn3CCCOC)c(O)cc2O)c1 (stereo not shown) [Compound 71]
25 | > 50 | COCCCn1nnnc1-c1cc(-c2cccc(C(=O)N3CCN(CCN4CCCC4)CC3)c2)c(O)cc1O [Compound 72, {2′,4′-Dihydroxy-5′-[1-(3-methoxy-propyl)-1H-tetrazol-5-yl]-biphenyl-3-yl}-[4-(2-pyrrolidin-1-yl-ethyl)-piperazin-1-yl]-methanone]
26 | > 50 | COCCCn1nnnc1-c1cc(-c2ccc(OC(F)(F)F)cc2)c(O)cc1O [Compound 73]
27 | > 50 | COCCCn1nnnc1-c1cc(-c2ccc(Oc3ccccc3)cc2)c(O)cc1O [Compound 74, 5-[1-(3-Methoxy-propyl)-1H-tetrazol-5-yl]-4′-phenoxy-biphenyl-2,4-diol]
28 | > 50 | CCc1ccccc1-c1cc(-c2nnnn2CCCOC)c(O)cc1O [Compound 75, 2′-Ethyl-5-[1-(3-methoxy-propyl)-1H-tetrazol-5-yl]-biphenyl-2,4-diol]
29 | 10 to 50 | COCCCn1nnnc1-c1cc(-c2cccc(C(C)C)c2)c(O)cc1O [Compound 76, 3′-Isopropyl-5-[1-(3-methoxy-propyl)-1H-tetrazol-5-yl]-biphenyl-2,4-diol]
30 | 10 to 50 | CCOc1cccc(-c2cc(-c3nnnn3CCCOC)c(O)cc2O)c1 [Compound 77, 3′-Ethoxy-5-[1-(3-methoxy-propyl)-1H-tetrazol-5-yl]-biphenyl-2,4-diol]
31 | > 50 | COCCCn1nnnc1-c1cc(-c2ccc(F)cc2F)c(O)cc1O [Compound 84]
32 | < 1 | COc1ccc(C(C)C)cc1-c1cc(-c2nnnn2-c2ccccc2)c(O)cc1O [Compound 120]

System: SK-BR-3
Assay: MTS assay (cell viability)
Format: cell-based
Settings: Homo sapiens; SK-BR-3 cells, 72 hours with compound, 50% reduction in number of viable cells; read-out: IC50'S(SK-BR-3)
Description: The anti-proliferative effects of biochemically active compounds were measured utilizing the MTS assay. The generalized procedure is describes as follows:
The cells are then trypsinized and re-plated in 96 well sterile cell culture plates in 130 μl/well growth media at a density that allows confluency of approximately 50% after 72 hours of growth. These starting densities vary across cell lines based on individual doubling times. The day following plating, the cell was treated with an appropriate concentration of compound diluted in DMSO. Cell plates were allowed to grow undisturbed at 37° C., 5% CO2 for 72 h. After 72 hours, 30 μl of a solution of 0.046 mg/ml Phemazine methosulfate (PMS) (Fluka product 68600) and 1.9 mg/ml MTS reagent ([3-(4,5-dimethylthiazol-2-yl)-5-(3 carboxymethoxyphenyl)-2-(4-sulfophenyl)-2H-tetrazolium, inner salt (Promega product G1111) is added directly to the well. Plate is re-incubated at 37° C., 5% CO2 for 4 hr. Plates were then read on the Perkin Elmer Envision to determine absorbance at 490 nm.
Cell viability was determined by measuring the activity of dehydrogenase enzymes in metabolically active cells using a tetrazolium compound, MTS. The assay was performed as described in Promega Technical Bulletin No. 169 (CellTiter 96 Aqueous Non-Radioactive Cell Proliferation Assay). Ten human cancer cell lines were assayed (see, e.g. Table 1). Cells were maintained at 37° C. and 5% CO2 in DMEM media (4.5 g/L glucose) supplemented with 10% heat-inactivated FBS, 10 mM L-glutamine, and 10 mM Hepes pH 7.5. Briefly, cells were seeded in 96-well plates as set forth in Table 1 and incubated for 16-24 hours. Candidate compounds were serially diluted in DMSO, further diluted in cell culture media, and then added to cells (final DMSO concentration of 0.33%). Cells were incubated in the presence of candidate compound for 72 hours. MTS stock solution (MTS 2 gm/L, PMS […] in PBS) was added to the cells (final concentration MTS […] and PMS 7.67 mg/L) and incubated for 4 hours. SDS was added to a final concentration of 1.4% and absorbance at 490 nm was measured within two hours using a plate reader. The IC50 was defined as the concentration of compound that results in a 50% reduction in the number of viable cells as compared to control wells treated with DMSO only (0.33%) and was calculated using non-linear regression analysis. IC50 values were given in Table 3 for the compounds listed.

Row | IC50 [µM] | Structure (SMILES)
33 | 13.5 | COc1ccc(C(C)C)cc1-c1cc(-c2nnnn2CCCOC(C)C)c(O)cc1O [Compound 99, 5-[1-(3-Isopropoxy-propyl)-1H-tetrazol-5-yl]-5′-isopropyl-2′-methoxy-biphenyl-2,4-diol]
34 | 3.22 | COc1ccc(C(C)C)cc1-c1cc(-c2nnnn2CCCc2ccccc2)c(O)cc1O [Compound 100]
35 | 13.7 | COc1ccc(C(C)C)cc1-c1cc(-c2nnnn2C2CCC2)c(O)cc1O [Compound 108, 5-(1-Cyclobutyl-1H-tetrazol-5-yl)-5′-isopropyl-2′-methoxy-biphenyl-2,4-diol]
36 | 1.58 | COc1ccc(C(C)C)cc1-c1cc(-c2nnnn2C(C)C)c(O)cc1O [Compound 110]

System: not given
Assay: not given
Settings: not given

Row | melting point [°C] | Structure (SMILES)
37 | 174 to 176 | COCCCn1nnnc1-c1cc(-c2cc(C(C)C)ccc2OC)c(O)cc1O [Compound 16, 5′-isopropyl-2′-methoxy-5-[1-(3-methoxy-propyl)-1H-tetrazol-5-yl]-biphenyl-2,4-diol]
